Experimental data reported in US9809623B2, “α4β7 peptide monomer and dimer antagonists” (Protagonist Therapeutics, Inc., priority 2014, dated 2017).
Numbered stars: 1 amine (or outer) side, 2 acyl side, 3 side chain; on linkers, the order of the positions; unused ones are H or OH. Bridge positions count the residues as written; N and C are the ends. Square brackets hold non-standard residues; d marks the D form. Peptide text beside a SMILES is read from it. I, II: the chains in the order shown. 2Nal = N[C@@H](Cc1ccc2ccccc2c1)C(=O)O; Diglycolyl = O=C(COCC(=O)[*:2])[*:1]; NMeR = CN[C@@H](CCCNC(=N)N)C(=O)O; Pen = CC(C)(S)[C@H](N)C(=O)O; Dab = NCC[C@H](N)C(=O)O; Dap = NC[C@H](N)C(=O)O

Molecular target: α4β7 (Homo sapiens, UniProt P13612+P26010)
Sequence (P13612 34-1032): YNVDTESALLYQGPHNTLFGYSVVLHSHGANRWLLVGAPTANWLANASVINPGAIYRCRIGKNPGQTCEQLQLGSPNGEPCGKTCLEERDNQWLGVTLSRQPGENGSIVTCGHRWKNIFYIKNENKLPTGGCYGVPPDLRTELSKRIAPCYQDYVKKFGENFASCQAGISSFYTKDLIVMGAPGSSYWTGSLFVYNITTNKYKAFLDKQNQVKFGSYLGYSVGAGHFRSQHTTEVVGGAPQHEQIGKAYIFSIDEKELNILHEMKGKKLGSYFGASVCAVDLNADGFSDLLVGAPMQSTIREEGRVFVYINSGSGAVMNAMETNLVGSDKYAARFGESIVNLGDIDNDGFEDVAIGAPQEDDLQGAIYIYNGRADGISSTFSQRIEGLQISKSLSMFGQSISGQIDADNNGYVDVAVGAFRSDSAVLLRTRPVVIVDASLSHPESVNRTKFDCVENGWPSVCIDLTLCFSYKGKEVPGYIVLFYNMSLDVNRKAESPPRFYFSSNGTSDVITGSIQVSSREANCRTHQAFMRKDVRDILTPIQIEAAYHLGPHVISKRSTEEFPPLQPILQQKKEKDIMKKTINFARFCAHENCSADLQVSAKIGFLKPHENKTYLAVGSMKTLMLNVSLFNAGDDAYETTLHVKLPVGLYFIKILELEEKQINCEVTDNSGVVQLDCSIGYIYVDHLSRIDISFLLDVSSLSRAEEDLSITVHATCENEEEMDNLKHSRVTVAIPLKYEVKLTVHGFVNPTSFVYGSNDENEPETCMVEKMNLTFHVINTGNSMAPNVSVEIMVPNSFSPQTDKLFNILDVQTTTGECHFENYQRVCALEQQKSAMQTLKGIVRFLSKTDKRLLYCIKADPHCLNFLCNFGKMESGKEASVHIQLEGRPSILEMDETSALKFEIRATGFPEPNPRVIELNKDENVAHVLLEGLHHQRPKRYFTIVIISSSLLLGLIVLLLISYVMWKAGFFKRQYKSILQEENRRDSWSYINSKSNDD
Sequence (P26010 20-798): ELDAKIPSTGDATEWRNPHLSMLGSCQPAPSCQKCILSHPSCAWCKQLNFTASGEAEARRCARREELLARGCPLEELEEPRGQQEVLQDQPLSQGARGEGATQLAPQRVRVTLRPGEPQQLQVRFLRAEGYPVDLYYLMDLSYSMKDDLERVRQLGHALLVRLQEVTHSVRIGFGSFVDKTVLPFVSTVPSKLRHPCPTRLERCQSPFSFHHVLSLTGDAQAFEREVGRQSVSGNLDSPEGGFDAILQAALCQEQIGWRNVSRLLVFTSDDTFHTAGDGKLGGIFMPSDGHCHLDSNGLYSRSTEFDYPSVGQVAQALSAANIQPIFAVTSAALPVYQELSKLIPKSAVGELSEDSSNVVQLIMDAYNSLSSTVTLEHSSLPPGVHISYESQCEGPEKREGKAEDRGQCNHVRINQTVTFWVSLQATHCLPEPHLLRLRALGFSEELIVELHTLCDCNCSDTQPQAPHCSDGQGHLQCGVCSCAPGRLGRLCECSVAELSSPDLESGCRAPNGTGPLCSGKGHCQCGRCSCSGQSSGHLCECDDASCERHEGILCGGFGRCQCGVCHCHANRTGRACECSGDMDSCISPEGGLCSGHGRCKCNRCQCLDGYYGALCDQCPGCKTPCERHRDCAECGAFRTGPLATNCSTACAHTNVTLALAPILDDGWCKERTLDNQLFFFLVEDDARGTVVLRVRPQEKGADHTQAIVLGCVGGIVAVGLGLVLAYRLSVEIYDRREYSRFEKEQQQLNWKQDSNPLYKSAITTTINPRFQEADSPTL
Experiment: α4β7-MAdCAM Cell Adhesion Assay (RPMI 8866 human cells)
Format: cell-based
Parameters: host or cells: RPMI 8866 human B lymphoblastoid cells
Conditions: Table 3-B, Potency (α4β7); range classes; read-out: α4β7 cell (Hu) IC50
Procedure: RPMI 8866 human cells (Sigma #95041316) were cultured in RPMI 1640 HEPES medium (Invitrogen #22400-089) supplemented with 10% serum (Fetal Bovine Serum, Invitrogen #16140-071), 1 mM sodium pyruvate (Invitrogen #11360-070), 2 mM L-glutamine (Invitrogen #25030-081) and Penicillin-Streptomycin (Invitrogen #15140-122) at 100 units of penicillin and 100 μg of streptomycin per ml. The cells were washed two times in DMEM medium (ATCC #30-2002) supplemented with 0.1% BSA, 10 mM HEPES pH 7 and 1 mM MnCl2. The cells were re-suspended in supplemented DMEM medium at a density of 4×10^6 cells/ml.
A Nunc MaxiSorp plate was coated with rh MAdCAM-1/Fc Chimera (R&D #6065-MC) at 200 ng per well in 50 ul per well in 1×PBS and incubated at 4° C. overnight. The solution was then removed by shaking, blocked with 250 ul per well PBS containing 1% BSA, and incubated at 37° C. for 1 hr. The solution was removed by shaking. Peptides were diluted by serial dilution in a final volume of 50 ul per well (2× concentration). To each well, 50 ul of cells (200,000 cells) were added and the plate was incubated at 37° C., 5% CO2 for 30-45 min to allow cell adhesion. The wells were washed manually three times (100 ul per wash) with supplemented DMEM. After the final wash, 100 ul/well of supplemented DMEM and 10 ul/well of MTT reagent (ATTC cat#30-1010K) were added. The plate was incubated at 37° C., 5% CO2 for 2-3 hrs until a purple precipitate was visible. 100 ul of Detergent Reagent (ATTC cat#30-1010K) was added to each well. The plate was covered from the light, wrapped in Parafilm to prevent evaporation, and left overnight at room temperature in the dark. The plate was shaken for 5 min and the absorbance at 570 nm was measured. To calculate the dose response, the absorbance value of control wells not containing cells was subtracted from each test well.

Row | Compound | IC50 [nM]
1 | CC(=O)N[C@@H]1C(=O)N(C)[C@@H](CCCNC(=N)N)C(=O)N[C@@H](CO)C(=O)N[C@@H](CC(=O)O)C(=O)N[C@@H]([C@@H](C)O)C(=O)N[C@@H](CC(C)C)C(=O)N[C@H](C(=O)N[C@@H](Cc2c[nH]c3ccccc23)C(=O)N[C@@H](CCC(=O)O)C(=O)N[C@@H](CN)C(N)=O)C(C)(C)SSC1(C)C [compound 59] (Ac-[Pen][NMeR]SDTL[Pen]WE[Dap]-NH2; disulfide 1-7) | 10000 to 100000
2 | CC(=O)N[C@@H]1C(=O)N(C)[C@@H](CCCNC(=N)N)C(=O)N[C@@H](CO)C(=O)N[C@@H](CC(=O)O)C(=O)N[C@@H]([C@@H](C)O)C(=O)N[C@@H](CC(C)C)C(=O)N[C@H](C(=O)N[C@@H](Cc2c[nH]c3ccccc23)C(=O)N[C@@H](CCC(=O)O)C(=O)N[C@@H](CCN)C(N)=O)C(C)(C)SSC1(C)C [compound 61] (Ac-[Pen][NMeR]SDTL[Pen]WE[Dab]-NH2; disulfide 1-7) | 1000 to 10000
3 | CC(=O)N[C@@H]1C(=O)N(C)[C@@H](CCCNC(=N)N)C(=O)N[C@@H](CO)C(=O)N[C@@H](CC(=O)O)C(=O)N[C@@H]([C@@H](C)O)C(=O)N[C@@H](CC(C)C)C(=O)N[C@H](C(=O)N[C@@H](Cc2c[nH]c3ccccc23)C(=O)N[C@H](CCC(=O)O)C(=O)N[C@H](CCCCNC(=O)CN(CC(=O)NCCCC[C@@H](NC(=O)[C@@H](CCC(=O)O)NC(=O)[C@H](Cc2c[nH]c3ccccc23)NC(=O)[C@H]2NC(=O)[C@H](CC(C)C)NC(=O)[C@H]([C@@H](C)O)NC(=O)[C@H](CC(=O)O)NC(=O)[C@H](CO)NC(=O)[C@H](CCCNC(=N)N)N(C)C(=O)[C@@H](NC(C)=O)C(C)(C)SSC2(C)C)C(N)=O)C(=O)CCN)C(N)=O)C(C)(C)SSC1(C)C [compound 70] | 25 to 50
4 | CC(=O)N[C@@H]1C(=O)N(C)[C@@H](CCCNC(=N)N)C(=O)N[C@@H](CO)C(=O)N[C@@H](CC(=O)O)C(=O)N[C@@H]([C@@H](C)O)C(=O)N[C@@H](CC(C)C)C(=O)N[C@H](C(=O)N[C@@H](Cc2c[nH]c3ccccc23)C(=O)N[C@H](CCC(=O)O)C(=O)N[C@H](CCCCNC(=O)CN(CC(=O)NCCCC[C@@H](NC(=O)[C@@H](CCC(=O)O)NC(=O)[C@H](Cc2c[nH]c3ccccc23)NC(=O)[C@H]2NC(=O)[C@H](CC(C)C)NC(=O)[C@H]([C@@H](C)O)NC(=O)[C@H](CC(=O)O)NC(=O)[C@H](CO)NC(=O)[C@H](CCCNC(=N)N)N(C)C(=O)[C@@H](NC(C)=O)C(C)(C)SSC2(C)C)C(N)=O)C(=O)CCNC(=O)CCCCC2SCC3NC(=O)NC32)C(N)=O)C(C)(C)SSC1(C)C (some centres unmarked) [compound 71] | 25 to 50
5 | CC(=O)N[C@@H]1C(=O)N(C)[C@@H](CCCNC(=N)N)C(=O)N[C@@H](CO)C(=O)N[C@@H](CC(=O)O)C(=O)N[C@@H]([C@@H](C)O)C(=O)N[C@@H](CC(C)C)C(=O)N[C@H](C(=O)N[C@@H](Cc2ccc3ccccc3c2)C(=O)N[C@@H](CCC(=O)O)C(N)=O)C(C)(C)SSC1(C)C [compound 75] (Ac-[Pen][NMeR]SDTL[Pen][2Nal]E-NH2; disulfide 1-7) | 50 to 100
6 | CC(=O)N[C@@H]1C(=O)N(C)[C@@H](CCCNC(=N)N)C(=O)N[C@@H](CO)C(=O)N[C@@H](CC(=O)O)C(=O)N[C@@H]([C@@H](C)O)C(=O)N[C@@H](CC(C)C)C(=O)N[C@H](C(=O)N[C@@H](Cc2c[nH]c3ccccc23)C(=O)N[C@H](CCCCNC(=O)COCC(=O)NCCCC[C@@H](NC(=O)[C@H](Cc2c[nH]c3ccccc23)NC(=O)[C@H]2NC(=O)[C@H](CC(C)C)NC(=O)[C@H]([C@@H](C)O)NC(=O)[C@H](CC(=O)O)NC(=O)[C@H](CO)NC(=O)[C@H](CCCNC(=N)N)N(C)C(=O)[C@@H](NC(C)=O)C(C)(C)SSC2(C)C)C(=O)O)C(=O)O)C(C)(C)SSC1(C)C [compound 76] (I: Ac-[Pen][NMeR]SDTL[Pen]W[dK]-OH / II: Ac-[Pen][NMeR]SDTL[Pen]W[dK]-OH; disulfide I:1-I:7, II:1-II:7; linker I:9-II:9 via Diglycolyl) | 10 to 25
7 | CC(=O)N[C@@H]1C(=O)N(C)[C@@H](CCCNC(=N)N)C(=O)N[C@@H](CO)C(=O)N[C@@H](CC(=O)O)C(=O)N[C@@H]([C@@H](C)O)C(=O)N[C@@H](CC(C)C)C(=O)N[C@H](C(=O)N[C@@H](Cc2c[nH]c3ccccc23)C(=O)N[C@@H](CCC(N)=O)C(=O)N[C@H](CCCCNC(=O)COCC(=O)NCCCC[C@@H](NC(=O)[C@H](CCC(N)=O)NC(=O)[C@H](Cc2c[nH]c3ccccc23)NC(=O)[C@H]2NC(=O)[C@H](CC(C)C)NC(=O)[C@H]([C@@H](C)O)NC(=O)[C@H](CC(=O)O)NC(=O)[C@H](CO)NC(=O)[C@H](CCCNC(=N)N)N(C)C(=O)[C@@H](NC(C)=O)C(C)(C)SSC2(C)C)C(N)=O)C(N)=O)C(C)(C)SSC1(C)C [compound 82] (I: Ac-[Pen][NMeR]SDTL[Pen]WQ[dK]-NH2 / II: Ac-[Pen][NMeR]SDTL[Pen]WQ[dK]-NH2; disulfide I:1-I:7, II:1-II:7; linker I:10-II:10 via Diglycolyl) | 50 to 100
8 | CC(=O)N[C@@H]1C(=O)N(C)[C@@H](CCCNC(=N)N)C(=O)N[C@@H](CO)C(=O)N[C@@H](CC(=O)O)C(=O)N[C@@H]([C@@H](C)O)C(=O)N[C@@H](CC(C)C)C(=O)N[C@H](C(=O)N[C@@H](Cc2c[nH]c3ccccc23)C(=O)N[C@@H](CC(N)=O)C(=O)N[C@H](CCCCNC(=O)COCC(=O)NCCCC[C@@H](NC(=O)[C@H](CC(N)=O)NC(=O)[C@H](Cc2c[nH]c3ccccc23)NC(=O)[C@H]2NC(=O)[C@H](CC(C)C)NC(=O)[C@H]([C@@H](C)O)NC(=O)[C@H](CC(=O)O)NC(=O)[C@H](CO)NC(=O)[C@H](CCCNC(=N)N)N(C)C(=O)[C@@H](NC(C)=O)C(C)(C)SSC2(C)C)C(N)=O)C(N)=O)C(C)(C)SSC1(C)C [compound 83] (I: Ac-[Pen][NMeR]SDTL[Pen]WN[dK]-NH2 / II: Ac-[Pen][NMeR]SDTL[Pen]WN[dK]-NH2; disulfide I:1-I:7, II:1-II:7; linker I:10-II:10 via Diglycolyl) | 50 to 100
9 | CC(=O)N[C@@H]1C(=O)N(C)[C@@H](CCCNC(=N)N)C(=O)N[C@@H](CO)C(=O)N[C@@H](CC(=O)O)C(=O)N[C@@H]([C@@H](C)O)C(=O)N[C@@H](CC(C)C)C(=O)N[C@H](C(=O)N[C@@H](Cc2c[nH]c3ccccc23)C(=O)N[C@@H](Cc2ccccc2)C(=O)N[C@H](CCCCNC(=O)COCC(=O)NCCCC[C@@H](NC(=O)[C@H](Cc2ccccc2)NC(=O)[C@H](Cc2c[nH]c3ccccc23)NC(=O)[C@H]2NC(=O)[C@H](CC(C)C)NC(=O)[C@H]([C@@H](C)O)NC(=O)[C@H](CC(=O)O)NC(=O)[C@H](CO)NC(=O)[C@H](CCCNC(=N)N)N(C)C(=O)[C@@H](NC(C)=O)C(C)(C)SSC2(C)C)C(N)=O)C(N)=O)C(C)(C)SSC1(C)C [compound 85] (I: Ac-[Pen][NMeR]SDTL[Pen]WF[dK]-NH2 / II: Ac-[Pen][NMeR]SDTL[Pen]WF[dK]-NH2; disulfide I:1-I:7, II:1-II:7; linker I:10-II:10 via Diglycolyl) | < 10
10 | CC(=O)N[C@@H]1C(=O)N(C)[C@@H](CCCNC(=N)N)C(=O)N[C@@H](CO)C(=O)N[C@@H](CC(=O)O)C(=O)N[C@@H]([C@@H](C)O)C(=O)N[C@@H](CC(C)C)C(=O)N[C@H](C(=O)N[C@@H](Cc2c[nH]c3ccccc23)C(=O)N[C@@H](CC(=O)O)C(=O)N[C@H](CCCCNC(=O)COCC(=O)NCCCC[C@@H](NC(=O)[C@H](CC(=O)O)NC(=O)[C@H](Cc2c[nH]c3ccccc23)NC(=O)[C@H]2NC(=O)[C@H](CC(C)C)NC(=O)[C@H]([C@@H](C)O)NC(=O)[C@H](CC(=O)O)NC(=O)[C@H](CO)NC(=O)[C@H](CCCNC(=N)N)N(C)C(=O)[C@@H](NC(C)=O)C(C)(C)SSC2(C)C)C(N)=O)C(N)=O)C(C)(C)SSC1(C)C [compound 87] (I: Ac-[Pen][NMeR]SDTL[Pen]WD[dK]-NH2 / II: Ac-[Pen][NMeR]SDTL[Pen]WD[dK]-NH2; disulfide I:1-I:7, II:1-II:7; linker I:10-II:10 via Diglycolyl) | 25 to 50
11 | CC(=O)N[C@@H]1C(=O)N(C)[C@@H](CCCNC(=N)N)C(=O)N[C@@H](CO)C(=O)N[C@@H](CC(=O)O)C(=O)N[C@@H]([C@@H](C)O)C(=O)N[C@@H](CC(C)C)C(=O)N[C@H](C(=O)N[C@@H](Cc2c[nH]c3ccccc23)C(=O)N[C@H](Cc2ccccc2)C(=O)N[C@H](CCCCNC(=O)COCC(=O)NCCCC[C@@H](NC(=O)[C@@H](Cc2ccccc2)NC(=O)[C@H](Cc2c[nH]c3ccccc23)NC(=O)[C@H]2NC(=O)[C@H](CC(C)C)NC(=O)[C@H]([C@@H](C)O)NC(=O)[C@H](CC(=O)O)NC(=O)[C@H](CO)NC(=O)[C@H](CCCNC(=N)N)N(C)C(=O)[C@@H](NC(C)=O)C(C)(C)SSC2(C)C)C(N)=O)C(N)=O)C(C)(C)SSC1(C)C [compound 91] (I: Ac-[Pen][NMeR]SDTL[Pen]W[dF][dK]-NH2 / II: Ac-[Pen][NMeR]SDTL[Pen]W[dF][dK]-NH2; disulfide I:1-I:7, II:1-II:7; linker I:10-II:10 via Diglycolyl) | 100 to 500
